Starred links: 1 amine or outer side, 2 acyl side, 3 side chain; linkers in the order of their positions; H or OH if unused. Non-standard residues stand in square brackets, D forms with d. Residues, ends and D or L forms follow the SMILES beside them. Groups on a side chain read outwards from the residue. *: point of attachment. C18 diacid = O=C(O)CCCCCCCCCCCCCCCCC(=O)*; γGlu = O=C(O)[C@H](CCC(=O)[*:2])N[*:1]; Ac4c = NC1(C(=O)O)CCC1; AEEA = NCCOCCOCC(=O)O; Aib = CC(C)(N)C(=O)O

The record followed here is patent US10570184B2, “GLP-1/glucagon receptor co-agonists for medical use” (Novo Nordisk A/S, priority 2014, dated 2020).

Series [1] is described as follows: Assay (III) ThT fibrillation assay for physical stability. In kind it is physicochemical. The following applies: 250 μM in 10 mM HEPES buffer, 37° C., shaking 960 rpm. In outline: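 Glucagon derivative at 250 μM in 10 mM HEPES pH 7.5 with 1 μM ThT was incubated at 37 °C under 960 rpm orbital shaking. Fluorescence (ex 444/em 485 nm) was read every 20 min and fitted for lag time (t0−2τ) and kapp (1/τ). Recovery was soluble peptide after centrifugation/filtration, by RP-HPLC, as percent of initial.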

A further series deals with T1, human GLP-1 receptor (Homo sapiens, UniProt P43220).
T1 construct: expressed in transfected cells; host or cells: membranes of BHK cells (parent BHKTS13), clone FCW467-12A
Kind of series: Assay (I)(a) GLP-1 receptor activation, CRE luciferase reporter gene assay in BHK cells. In kind it is cell-based. The following applies: without presence of serum albumin; read-out: GLP-1R EC50 (pM) [Assay (I)(a)]. An outline of the steps:
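Stable BHK clone expressing human GLP-1 receptor with CRE-driven firefly luciferase, 5×10EE3 cells/well in medium with 2% ovalbumin and 0.2% Pluronic F-68. Compounds at 1×10EE-13 to 1×10EE-6 M final, 3 h at 37° C.; luminescence read, EC50 (pM) from four-parameter fit.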

T1 sequence (P43220 24-463): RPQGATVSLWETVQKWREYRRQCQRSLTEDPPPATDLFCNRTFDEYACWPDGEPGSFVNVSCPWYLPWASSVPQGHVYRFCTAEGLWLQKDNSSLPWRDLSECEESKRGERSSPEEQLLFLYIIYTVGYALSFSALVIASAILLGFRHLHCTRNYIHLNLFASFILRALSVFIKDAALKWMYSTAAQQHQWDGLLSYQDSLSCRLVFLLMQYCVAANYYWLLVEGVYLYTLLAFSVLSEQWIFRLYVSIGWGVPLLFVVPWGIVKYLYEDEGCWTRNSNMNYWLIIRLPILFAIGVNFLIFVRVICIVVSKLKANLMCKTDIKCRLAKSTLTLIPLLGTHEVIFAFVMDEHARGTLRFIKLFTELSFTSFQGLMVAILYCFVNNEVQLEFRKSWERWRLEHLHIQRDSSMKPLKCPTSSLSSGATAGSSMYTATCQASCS

Turning to `CC[C@H](C)[C@H](NC(=O)[C@H](CC(C)C)NC(=O)[C@H](Cc1c[nH]c2ccccc12)NC(=O)[C@H](CCC(N)=O)NC(=O)[C@@H](NC(=O)[C@H](Cc1ccccc1)NC(=O)[C@H](CCC(=O)O)NC(=O)[C@H](CCCNC(=N)N)NC(=O)[C@H](C)NC(=O)[C@H](CCCNC(=N)N)NC(=O)[C@H](CCCNC(=N)N)NC(=O)[C@H](CO)NC(=O)[C@H](CCC(=O)O)NC(=O)[C@H](CC(C)C)NC(=O)[C@H](Cc1ccc(O)cc1)NC(=O)[C@H](CCCCN)NC(=O)[C@H](CO)NC(=O)[C@H](CC(C)C)NC(=O)[C@H](CC(=O)O)NC(=O)[C@H](CO)NC(=O)[C@@H](NC(=O)[C@H](Cc1ccccc1)NC(=O)[C@@H](NC(=O)CNC(=O)[C@H](CCC(N)=O)NC(=O)C1(NC(=O)[C@@H](N)Cc2c[nH]cn2)CCC1)[C@@H](C)O)[C@@H](C)O)C(C)C)C(=O)N[C@@H](CCCCNC(=O)COCCOCCNC(=O)COCCOCCNC(=O)CC[C@H](NC(=O)CC[C@H](NC(=O)CCCCCCCCCCCCCCCCC(=O)O)C(=O)O)C(=O)O)C(=O)N[C@H](C(N)=O)[C@@H](C)O` [Chem. 18, N^ε28-[2-[2-[2-[[2-[2-[2-[[(4S)-4-carboxy-4-[[(4S)-4-carboxy-4-(17-carboxyheptadecanoylamino)butanoyl]amino]butanoyl]amino]ethoxy]ethoxy]acetyl]amino]ethoxy]ethoxy]acetyl]-[Acb2,Leu10,Glu15,Arg20,Glu21,Ile27,Lys28]-Glucagon amide] (H-H[Ac4c]QGTFTSDLSKYLESRRAREFVQWLIK([AEEA-AEEA-γGlu-γGlu-C18 diacid])T-NH2), the “ThT Assay Lag time (h) [Assay (III), pH 7.5]” value in series [1] is on record as 5.0 h. For the same compound, at human GLP-1 receptor, the half-maximal effective concentration (EC50) came out at 4 pM.
`CC[C@H](C)[C@H](NC(=O)[C@H](CC(C)C)NC(=O)[C@H](Cc1c[nH]c2ccccc12)NC(=O)[C@H](CCC(N)=O)NC(=O)[C@@H](NC(=O)[C@H](Cc1ccccc1)NC(=O)[C@H](CCC(=O)O)NC(=O)[C@H](CCCNC(=N)N)NC(=O)[C@H](C)NC(=O)[C@H](CCCNC(=N)N)NC(=O)[C@H](CCCNC(=N)N)NC(=O)[C@H](C)NC(=O)[C@H](CC(=O)O)NC(=O)[C@H](CC(C)C)NC(=O)[C@H](Cc1ccc(O)cc1)NC(=O)[C@H](CCCCN)NC(=O)[C@H](CO)NC(=O)[C@H](CC(C)C)NC(=O)[C@H](CC(=O)O)NC(=O)[C@H](CO)NC(=O)[C@@H](NC(=O)[C@H](Cc1ccccc1)NC(=O)[C@@H](NC(=O)CNC(=O)[C@H](CCC(N)=O)NC(=O)C(C)(C)NC(=O)[C@@H](N)Cc1c[nH]cn1)[C@@H](C)O)[C@@H](C)O)C(C)C)C(=O)N[C@@H](CC(N)=O)C(=O)N[C@@H](CCCCNC(=O)CC[C@H](NC(=O)CC[C@H](NC(=O)COCCOCCNC(=O)COCCOCCNC(=O)CC[C@H](NC(=O)CCCCCCCCCCCCCCCCC(=O)O)C(=O)O)C(=O)O)C(=O)O)C(N)=O` [Chem. 21, N^ε29-[(4S)-4-carboxy-4-[[(4S)-4-carboxy-4-[[2-[2-[2-[[2-[2-[2-[[(4S)-4-carboxy-4-(17-carboxyheptadecanoylamino)butanoyl]amino]ethoxy]ethoxy]acetyl]amino]ethoxy]ethoxy]acetyl]amino]butanoyl]amino]butanoyl]-[Aib2,Leu10,Ala16,Arg20,Glu21,Ile27,Lys29]-Glucagon amide] (H-H[Aib]QGTFTSDLSKYLDARRAREFVQWLINK([γGlu-γGlu-AEEA-AEEA-γGlu-C18 diacid])-NH2; N-terminus assumed): in series [1], the “ThT Assay Lag time (h) [Assay (III), pH 7.5]” value is 45.0 h. Further, at human GLP-1 receptor, the EC50 worked out at 3 pM.
